According to the NIST ThermoML archive (doi:10.1021/je800224k):
± gives the expanded uncertainty stated by the source.

Conditions: Liquid

CCCCCCn1cc[n+](C)c1.F[B-](F)(F)F [1-hexyl-3-methylimidazolium tetrafluoroborate]
Conditions	mass density [kg/m3]
293.15 K, 101.33 kPa, Vibrating tube method	1148.5 ± 3.4
313.15 K, 101.33 kPa, Vibrating tube method	1134.7 ± 3.3
313.3 K, 10000 kPa, Bellows volumetry	1139 ± 3
313.3 K, 20000 kPa, Bellows volumetry	1144 ± 3
313.3 K, 30000 kPa, Bellows volumetry	1149 ± 3
313.3 K, 40000 kPa, Bellows volumetry	1154 ± 3
313.3 K, 50000 kPa, Bellows volumetry	1158 ± 3
313.3 K, 60000 kPa, Bellows volumetry	1162 ± 3
313.3 K, 70000 kPa, Bellows volumetry	1167 ± 3
313.3 K, 80000 kPa, Bellows volumetry	1171 ± 3
313.3 K, 90000 kPa, Bellows volumetry	1174 ± 3
313.3 K, 100000 kPa, Bellows volumetry	1178 ± 4
313.3 K, 110000 kPa, Bellows volumetry	1182 ± 4
313.3 K, 120000 kPa, Bellows volumetry	1186 ± 4
313.3 K, 130000 kPa, Bellows volumetry	1189 ± 4
313.3 K, 140000 kPa, Bellows volumetry	1193 ± 4
313.3 K, 150000 kPa, Bellows volumetry	1196 ± 4
313.3 K, 160000 kPa, Bellows volumetry	1199 ± 4
313.3 K, 170000 kPa, Bellows volumetry	1202 ± 4
313.3 K, 180000 kPa, Bellows volumetry	1206 ± 4
313.3 K, 190000 kPa, Bellows volumetry	1209 ± 4
313.3 K, 200000 kPa, Bellows volumetry	1212 ± 4
332.5 K, 10000 kPa, Bellows volumetry	1126 ± 3
332.5 K, 20000 kPa, Bellows volumetry	1131 ± 3
332.5 K, 30000 kPa, Bellows volumetry	1136 ± 3
332.5 K, 40000 kPa, Bellows volumetry	1141 ± 3
332.5 K, 50000 kPa, Bellows volumetry	1146 ± 3
332.5 K, 60000 kPa, Bellows volumetry	1150 ± 3
332.5 K, 70000 kPa, Bellows volumetry	1154 ± 3
332.5 K, 80000 kPa, Bellows volumetry	1159 ± 3
332.5 K, 90000 kPa, Bellows volumetry	1163 ± 3
332.5 K, 100000 kPa, Bellows volumetry	1167 ± 3
332.5 K, 110000 kPa, Bellows volumetry	1170 ± 3
332.5 K, 120000 kPa, Bellows volumetry	1174 ± 3
332.5 K, 130000 kPa, Bellows volumetry	1178 ± 3
332.5 K, 140000 kPa, Bellows volumetry	1181 ± 4
332.5 K, 150000 kPa, Bellows volumetry	1185 ± 4
332.5 K, 160000 kPa, Bellows volumetry	1188 ± 4
332.5 K, 170000 kPa, Bellows volumetry	1192 ± 4
332.5 K, 180000 kPa, Bellows volumetry	1195 ± 4
332.5 K, 190000 kPa, Bellows volumetry	1198 ± 4
332.5 K, 200000 kPa, Bellows volumetry	1201 ± 4
333.15 K, 101.33 kPa, Vibrating tube method	1121 ± 3.3
352.6 K, 10000 kPa, Bellows volumetry	1113 ± 3
352.6 K, 20000 kPa, Bellows volumetry	1118 ± 3
352.6 K, 30000 kPa, Bellows volumetry	1123 ± 3
352.6 K, 40000 kPa, Bellows volumetry	1128 ± 3
352.6 K, 50000 kPa, Bellows volumetry	1133 ± 3
352.6 K, 60000 kPa, Bellows volumetry	1138 ± 3
352.6 K, 70000 kPa, Bellows volumetry	1142 ± 3
352.6 K, 80000 kPa, Bellows volumetry	1147 ± 3
352.6 K, 90000 kPa, Bellows volumetry	1151 ± 3
352.6 K, 100000 kPa, Bellows volumetry	1155 ± 3
352.6 K, 110000 kPa, Bellows volumetry	1159 ± 3
352.6 K, 120000 kPa, Bellows volumetry	1163 ± 3
352.6 K, 130000 kPa, Bellows volumetry	1167 ± 3
352.6 K, 140000 kPa, Bellows volumetry	1170 ± 3
352.6 K, 150000 kPa, Bellows volumetry	1174 ± 3
352.6 K, 160000 kPa, Bellows volumetry	1177 ± 3
352.6 K, 170000 kPa, Bellows volumetry	1181 ± 4
352.6 K, 180000 kPa, Bellows volumetry	1184 ± 4
352.6 K, 190000 kPa, Bellows volumetry	1187 ± 4
352.6 K, 200000 kPa, Bellows volumetry	1191 ± 4
353.15 K, 101.33 kPa, Vibrating tube method	1107.6 ± 3.3
372.7 K, 10000 kPa, Bellows volumetry	1099 ± 3
372.7 K, 20000 kPa, Bellows volumetry	1105 ± 3
372.7 K, 30000 kPa, Bellows volumetry	1111 ± 3
372.7 K, 40000 kPa, Bellows volumetry	1116 ± 3
372.7 K, 50000 kPa, Bellows volumetry	1121 ± 3
372.7 K, 60000 kPa, Bellows volumetry	1126 ± 3
372.7 K, 70000 kPa, Bellows volumetry	1131 ± 3
372.7 K, 80000 kPa, Bellows volumetry	1135 ± 3
372.7 K, 90000 kPa, Bellows volumetry	1139 ± 3
372.7 K, 100000 kPa, Bellows volumetry	1144 ± 3
372.7 K, 110000 kPa, Bellows volumetry	1148 ± 3
372.7 K, 120000 kPa, Bellows volumetry	1152 ± 3
372.7 K, 130000 kPa, Bellows volumetry	1156 ± 3
372.7 K, 140000 kPa, Bellows volumetry	1160 ± 3
372.7 K, 150000 kPa, Bellows volumetry	1163 ± 3
372.7 K, 160000 kPa, Bellows volumetry	1167 ± 3
372.7 K, 170000 kPa, Bellows volumetry	1170 ± 3
372.7 K, 180000 kPa, Bellows volumetry	1174 ± 3
372.7 K, 190000 kPa, Bellows volumetry	1177 ± 3
372.7 K, 200000 kPa, Bellows volumetry	1180 ± 4
393 K, 10000 kPa, Bellows volumetry	1087 ± 3
393 K, 20000 kPa, Bellows volumetry	1093 ± 3
393 K, 30000 kPa, Bellows volumetry	1098 ± 3
393 K, 40000 kPa, Bellows volumetry	1104 ± 3
393 K, 50000 kPa, Bellows volumetry	1109 ± 3
393 K, 60000 kPa, Bellows volumetry	1114 ± 3
393 K, 70000 kPa, Bellows volumetry	1119 ± 3
393 K, 80000 kPa, Bellows volumetry	1124 ± 3
393 K, 90000 kPa, Bellows volumetry	1128 ± 3
393 K, 100000 kPa, Bellows volumetry	1133 ± 3
393 K, 110000 kPa, Bellows volumetry	1137 ± 3
393 K, 120000 kPa, Bellows volumetry	1141 ± 3
393 K, 130000 kPa, Bellows volumetry	1145 ± 3
393 K, 140000 kPa, Bellows volumetry	1149 ± 3
393 K, 150000 kPa, Bellows volumetry	1153 ± 3
393 K, 160000 kPa, Bellows volumetry	1157 ± 3
393 K, 170000 kPa, Bellows volumetry	1160 ± 3
393 K, 180000 kPa, Bellows volumetry	1164 ± 3
393 K, 190000 kPa, Bellows volumetry	1167 ± 3
393 K, 200000 kPa, Bellows volumetry	1171 ± 3
413 K, 10000 kPa, Bellows volumetry	1074 ± 3
413 K, 20000 kPa, Bellows volumetry	1080 ± 3
413 K, 30000 kPa, Bellows volumetry	1086 ± 3
413 K, 40000 kPa, Bellows volumetry	1092 ± 3
413 K, 50000 kPa, Bellows volumetry	1098 ± 3
413 K, 60000 kPa, Bellows volumetry	1103 ± 3
413 K, 70000 kPa, Bellows volumetry	1108 ± 3
413 K, 80000 kPa, Bellows volumetry	1113 ± 3
413 K, 90000 kPa, Bellows volumetry	1118 ± 3
413 K, 100000 kPa, Bellows volumetry	1122 ± 3
413 K, 110000 kPa, Bellows volumetry	1126 ± 3
413 K, 120000 kPa, Bellows volumetry	1131 ± 3
413 K, 130000 kPa, Bellows volumetry	1135 ± 3
413 K, 140000 kPa, Bellows volumetry	1139 ± 3
413 K, 150000 kPa, Bellows volumetry	1143 ± 3
413 K, 160000 kPa, Bellows volumetry	1147 ± 3
413 K, 170000 kPa, Bellows volumetry	1150 ± 3
413 K, 180000 kPa, Bellows volumetry	1154 ± 3
413 K, 190000 kPa, Bellows volumetry	1158 ± 3
413 K, 200000 kPa, Bellows volumetry	1161 ± 3
432.9 K, 10000 kPa, Bellows volumetry	1062 ± 3
432.9 K, 20000 kPa, Bellows volumetry	1068 ± 3
432.9 K, 30000 kPa, Bellows volumetry	1075 ± 3
432.9 K, 40000 kPa, Bellows volumetry	1081 ± 3
432.9 K, 50000 kPa, Bellows volumetry	1086 ± 3
432.9 K, 60000 kPa, Bellows volumetry	1092 ± 3
432.9 K, 70000 kPa, Bellows volumetry	1097 ± 3
432.9 K, 80000 kPa, Bellows volumetry	1102 ± 3
432.9 K, 90000 kPa, Bellows volumetry	1107 ± 3
432.9 K, 100000 kPa, Bellows volumetry	1112 ± 3
432.9 K, 110000 kPa, Bellows volumetry	1116 ± 3
432.9 K, 120000 kPa, Bellows volumetry	1121 ± 3
432.9 K, 130000 kPa, Bellows volumetry	1125 ± 3
432.9 K, 140000 kPa, Bellows volumetry	1129 ± 3
432.9 K, 150000 kPa, Bellows volumetry	1133 ± 3
432.9 K, 160000 kPa, Bellows volumetry	1137 ± 3
432.9 K, 170000 kPa, Bellows volumetry	1141 ± 3
432.9 K, 180000 kPa, Bellows volumetry	1145 ± 3
432.9 K, 190000 kPa, Bellows volumetry	1148 ± 3
432.9 K, 200000 kPa, Bellows volumetry	1152 ± 3
452.6 K, 10000 kPa, Bellows volumetry	1049 ± 3
452.6 K, 20000 kPa, Bellows volumetry	1056 ± 3
452.6 K, 30000 kPa, Bellows volumetry	1063 ± 3
452.6 K, 40000 kPa, Bellows volumetry	1069 ± 3
452.6 K, 50000 kPa, Bellows volumetry	1075 ± 3
452.6 K, 60000 kPa, Bellows volumetry	1081 ± 3
452.6 K, 70000 kPa, Bellows volumetry	1086 ± 3
452.6 K, 80000 kPa, Bellows volumetry	1092 ± 3
452.6 K, 90000 kPa, Bellows volumetry	1097 ± 3
452.6 K, 100000 kPa, Bellows volumetry	1101 ± 3
452.6 K, 110000 kPa, Bellows volumetry	1106 ± 3
452.6 K, 120000 kPa, Bellows volumetry	1111 ± 3
452.6 K, 130000 kPa, Bellows volumetry	1115 ± 3
452.6 K, 140000 kPa, Bellows volumetry	1119 ± 3
452.6 K, 150000 kPa, Bellows volumetry	1123 ± 3
452.6 K, 160000 kPa, Bellows volumetry	1128 ± 3
452.6 K, 170000 kPa, Bellows volumetry	1131 ± 3
452.6 K, 180000 kPa, Bellows volumetry	1135 ± 3
452.6 K, 190000 kPa, Bellows volumetry	1139 ± 3
452.6 K, 200000 kPa, Bellows volumetry	1143 ± 3
472.5 K, 10000 kPa, Bellows volumetry	1037 ± 3
472.5 K, 20000 kPa, Bellows volumetry	1045 ± 3
472.5 K, 30000 kPa, Bellows volumetry	1052 ± 3
472.5 K, 40000 kPa, Bellows volumetry	1058 ± 3
472.5 K, 50000 kPa, Bellows volumetry	1064 ± 3
472.5 K, 60000 kPa, Bellows volumetry	1070 ± 3
472.5 K, 70000 kPa, Bellows volumetry	1076 ± 3
472.5 K, 80000 kPa, Bellows volumetry	1081 ± 3
472.5 K, 90000 kPa, Bellows volumetry	1087 ± 3
472.5 K, 100000 kPa, Bellows volumetry	1092 ± 3
472.5 K, 110000 kPa, Bellows volumetry	1096 ± 3
472.5 K, 120000 kPa, Bellows volumetry	1101 ± 3
472.5 K, 130000 kPa, Bellows volumetry	1105 ± 3
472.5 K, 140000 kPa, Bellows volumetry	1110 ± 3
472.5 K, 150000 kPa, Bellows volumetry	1114 ± 3
472.5 K, 160000 kPa, Bellows volumetry	1118 ± 3
472.5 K, 170000 kPa, Bellows volumetry	1122 ± 3
472.5 K, 180000 kPa, Bellows volumetry	1126 ± 3
472.5 K, 190000 kPa, Bellows volumetry	1130 ± 3
472.5 K, 200000 kPa, Bellows volumetry	1134 ± 3
